Source: patent publication US20090239887A1, “Method of resolution and antiviral activity of 1,3-oxathiolane nucleoside enantiomers” (Emory University, priority 1990, published 2009)
pEC50: −log10 of the molar value. Read-outs that look alike come from different tables or passages of the source.

Columns and labels:
HIV-1 (strain LAV) = assay: microbe, parasite or virus in culture; type: cell-based
From the text: It is often desirable to screen a number of racemic mixtures of nucleosides as a preliminary step to determine which warrant further resolution into enantiomerically enriched components and evaluation of antiviral activity. The ability of nucleosides to inhibit HIV can be measured by various experimental techniques. The technique used herein, and described in detail below, measures the inhibition of viral replication in phytohemagglutinin (PHA) stimulated human peripheral blood mononuclear (PBM) cells infected with HIV-1 (strain LAV). The amount of virus produced is determined by measuring the virus-coded reverse transcriptase enzyme. The amount of enzyme produced is proportional to the amount of virus produced.
A. Three-day-old phytohemagglutinin-stimulated PBM cells (10^6 cells/ml) from hepatitis B and HIV-1 seronegative healthy donors were infected with HIV-1 (strain LAV) at a concentration of about 100 times the 50% tissue culture infectious dose (TICD 50) per ml and cultured in the presence and absence of various concentrations of antiviral compounds.
B. Approximately one hour after infection, the medium, with the compound to be tested (2 times the final concentration in medium) or without compound, was added to the flasks (5 ml; final volume 10 ml). AZT was used as a positive control.
C. The cells were exposed to the virus (about 2×10^5 dpm/ml, as determined by reverse transcriptase assay) and then placed in a CO2 incubator. HIV-1 (strain LAV) was obtained from the Center for Disease Control, Atlanta, Ga. The methods used for culturing the PBM cells, harvesting the virus and determining the reverse transcriptase activity were those described by McDougal et al. (J. Immun. Meth. 76, 171-183, 1985) and Spira et al. (J. Clin. Meth. 25, 97-99, 1987), except that fungizone was not included in the medium (see Schinazi, et al., Antimicrob. Agents Chemother. 32, 1784-1787 (1988); Id., 34:1061-1067 (1990)).
D. On day 6, the cells and supernatant were transferred to a 15 ml tube and centrifuged at about 900 g for 10 minutes. Five ml of supernatant were removed and the virus was concentrated by centrifugation at 40,000 rpm for 30 minutes (Beckman 70.1 Ti rotor). The solubilized virus pellet was processed for determination of the levels of reverse transcriptase. Results are expressed in dpm/ml of sampled supernatant. Virus from smaller volumes of supernatant (1 ml) can also be concentrated by centrifugation prior to solubilization and determination of reverse transcriptase levels.

[1] = Cytotoxicity in mitogen stimulated uninfected human PBM cells (trypan blue exclusion); type: cell-based
From the text: The cells were counted after 6 days using a hemacytometer and the trypan blue exclusion method, as described by Schinazi et al., Antimicrobial Agents and Chemotherapy, 22(3), 499 (1982).

hepG2 cells = test system: hepG2 cells
Method: (§1) Studies were undertaken using radiolabeled agent in order to follow the intracellular profiles of the parent drug and metabolites detected within the cell. All studies were conducted in duplicate. […] Cells are exposed to the drug for 2, 6, 12 and 24 hours. At these timepoints, the medium is removed and the cells are washed two times with cold Hank's balanced salt solution. Extraction is performed with addition of 0.2 ml of 60% cold methanol/water and stored overnight at −70° C. The following morning, the suspensions are centrifuged and extractions are repeated two times for 0.5 hours at −70° C. The total supernatants (0.6 ml) are lyophilized to dryness. The residues are resuspended in 250 μl of water and aliquots comprising between 50 and 100 μl are analyzed by HPLC. Quantitation of intracellular parent drug and metabolic derivatives are conducted by HPLC. Because of the potential acid lability of some compounds, a buffer system close to physiological pH is used for the separation of the metabolites.

human PBM cells = conditions: 10 μM radiolabeled FTC, 2-24 hours
Method: as §1

Vero cells = conditions: African green monkey
CEM cells = conditions: human

Nc1nc(=O)n(C2CSC(CO)O2)cc1F (racemic) [DLS-022, 2-hydroxymethyl-5-(5-fluorocytosin-1-yl)-1,3-oxathiolane]
DPM/ml (HIV-1 (strain LAV); 0.0001 μM): 73,755 DPM/ml
DPM/ml (HIV-1 (strain LAV); 0.005 μM): 83,005 DPM/ml
DPM/ml (HIV-1 (strain LAV); 0.01 μM): 60,465 DPM/ml
DPM/ml (HIV-1 (strain LAV); 0.05 μM): 34,120 DPM/ml
DPM/ml (HIV-1 (strain LAV); 0.1 μM): 14,160 DPM/ml
DPM/ml (HIV-1 (strain LAV); 0.5 μM): 18,095 DPM/ml
DPM/ml (HIV-1 (strain LAV); 1 μM): 7,555 DPM/ml
DPM/ml (HIV-1 (strain LAV); 5 μM): 7,940 DPM/ml
DPM/ml (HIV-1 (strain LAV); 10 μM): 5,810 DPM/ml
inhibition at 0.0001 µM (HIV-1 (strain LAV); Human immunodeficiency virus 1, PBMC, 0.0001 μM, read-out: % Inhibition (Corrected)): 26.6%
pEC50 (HIV-1 (strain LAV); Human immunodeficiency virus 1, PBMC, human PBM cells infected with HIV-1 (strain LAV), Table 3, read-out: Antiviral EC50): 7.96
pEC50 (HIV-1 (strain LAV); Human immunodeficiency virus 1, PBMC, human PBM cells infected with HIV-1, enantiomers isolated by chiral HPLC (Example 3), read-out: EC50): 7.74
pEC50 (HIV-1 (strain LAV); Human immunodeficiency virus 1, PBMC, human PBM cells infected with HIV-1, enantiomers resolved by method of Example 2 (FIG. 5), read-out: EC50): 7.77
inhibition at 0.005 µM (HIV-1 (strain LAV); Human immunodeficiency virus 1, PBMC, 0.005 μM, read-out: % Inhibition (Corrected)): 16.3%
inhibition at 0.01 µM (HIV-1 (strain LAV); Human immunodeficiency virus 1, PBMC, 0.01 μM, read-out: % Inhibition (Corrected)): 41.3%
inhibition at 0.05 µM (HIV-1 (strain LAV); Human immunodeficiency virus 1, PBMC, 0.05 μM, read-out: % Inhibition (Corrected)): 70.4%
inhibition at 0.5 µM (HIV-1 (strain LAV); Human immunodeficiency virus 1, PBMC, 0.5 μM, read-out: % Inhibition (Corrected)): 88.1%
inhibition at 1 µM (HIV-1 (strain LAV); Human immunodeficiency virus 1, PBMC, 1 μM, read-out: % Inhibition (Corrected)): 99.7%
inhibition at 5 µM (HIV-1 (strain LAV); Human immunodeficiency virus 1, PBMC, 5 μM, read-out: % Inhibition (Corrected)): 99.3%
inhibition at 10 µM (HIV-1 (strain LAV); Human immunodeficiency virus 1, PBMC, 10 μM, read-out: % Inhibition (Corrected)): 102%
IC50 at 6 days [1]: > 100000 nM
metabolism to triphosphate in human liver cells (hepG2 cells; hepG2 cells): metabolize a large percentage
uptake by hepG2 cells (hepG2 cells; human liver cells): taken up by hepG2 cells in large amounts
uptake in human lymphocytes (human PBM cells): readily taken up
toxicity (Vero cells): > 100 µM
toxicity (CEM cells): > 100 µM
activity against HBV (HBV (hepatitis B virus)): effective
